Key:
[1] = target: T1, potassium channel of hERG (Homo sapiens, UniProt Q12809); test: Inhibitory effect on potassium channel of hERG by electrophysiological manual patch clamp; assay type: cell-based; details: HEK-293 cells overexpressed potassium channel of hERG, 0.37-30.00 μM, read-out: IC50 acting on hERG potassium channel
T1 construct: expressed in transfected cells; host or cells: HEK-293 cells
Description: The cell line was derived from HEK-293 cells overexpressed potassium channel of hERG.
The cells were cultured in a5% CO2 incubator at 37° C. When the cell density reached 80% of the culture dish, the cells were pre-cleaned with phosphate buffer (PBS), and then digested with trypsin/EDTA for 2-3 minutes. and then the cell culture medium was added to stop digestion. The cells were blew with a pipette gently and transferred to a centrifugal tube. The cells were centrifuged for 3 minutes at 1,000 rpm. The supernatant was poured out. The cell culture medium was added and blew gently to mix the cells well. Then the cells were transferred to a culture dish for subculture, or the cells were dropped onto a circular slide and placed in a culture dish until cell adherence for experiment. […]
hERG potassium channel current was recorded by using the whole cell recording mode. Firstly, the extracellular fluid (about 2 milliliters per minute) was perfused and recorded continuously, and waiting the current stabilization (Run-Down was less than 5% in 5 minutes). […] Then the extracellular fluid containing the tested compounds was perfused (the concentration of the tested compounds were 0.37 μM, 1.10 μM, 3.30 μM, 10.00 μM and 30.00 μM, respectively) and current value was recorded continuously until the inhibitory effect of the tested compounds on hERG current reached a stable state. […]

[2] = Pharmacokinetic evaluation after intravenous or gavage administration in rats; assay type: in vivo, SD rats
Description: The LC-MS/MS system comprises Agilent 1200 series vacuum degassing furnace, quaternary pumps, well-plate autosampler, thermostatted column compartment, the API4000Qtrap Triple Quadrupole Mass Spectrometer with an electrospray ionization (ESI) source. Quantitative analysis was carried out using MRM mode. The parameters for MRM transitions are in Table 2.
Analysis was carried out on waters xbridge C18 (2.1×50 mm, […] column, 0.5 μL of sample), the analytic conditions are mobile phases cosisting of water+2 mM ammonium formate+0.1% formic acid (Phase A) and methanol+2 mM ammonium formate+0.1% formic acid (Phase B). The flow rate was 0.4 mL/min. And the gradient of Mobile phase was in Table 3.
Each animal species was divided into two groups: one was administered intravenously and the other was administered intragastrically. The compounds disclosed herein were administered in form of a solution containing 5% DMSO+5% Kolliphor HS15+90% Saline. For the group of intravenous administration, the administration dose was 1 mg/kg, and vein blood samples (0.3 ml) were collected at the time points of 0.083, 0.25, 0.5, 1.0, 2.0, 4.0, 6.0, 8.0 and 24 h after drug administration, then plasma solutions were collected by centrifuging each blood sample at 3000 rpm or 4000 rpm for 10 minutes and kept at −20° C. or −70° C. For the group of intragastric administration, the administration dose was 5 mg/kg, and vein blood samples (0.3 mL) were collected at the time points of 0.25, 0.5, 1.0, 2.0, 4.0, 6.0, 8.0 and 24 h after drug administration, then plasma solutions were collected by centrifuging each blood sample at 3000 rpm or 4000 rpm for 10 minutes and kept at −20° C. or −70° C.
20 μL of plasma was blended with 120 μl, 50 ng/ml propranolol standard water solution, then the mixture was extracted with 1.0 mL methyl tert-butyl ether (MTBE), 0.7 mL of supernatant was dried by blow with nitrogen and then dissolved again with 220 μL methanol water (methanol/water (v/v)=1/1). LC-MS/MS method was used to detect the concentration of the target compounds, and […] was used to calculate the pharmacokinetic parameters.

[3] = SD, rat, plasma, iv, i.v group, 1 mg/kg
[4] = SD, rat, plasma, po, i.g group, 5 mg/kg

T1 sequence (Q12809 whole entry): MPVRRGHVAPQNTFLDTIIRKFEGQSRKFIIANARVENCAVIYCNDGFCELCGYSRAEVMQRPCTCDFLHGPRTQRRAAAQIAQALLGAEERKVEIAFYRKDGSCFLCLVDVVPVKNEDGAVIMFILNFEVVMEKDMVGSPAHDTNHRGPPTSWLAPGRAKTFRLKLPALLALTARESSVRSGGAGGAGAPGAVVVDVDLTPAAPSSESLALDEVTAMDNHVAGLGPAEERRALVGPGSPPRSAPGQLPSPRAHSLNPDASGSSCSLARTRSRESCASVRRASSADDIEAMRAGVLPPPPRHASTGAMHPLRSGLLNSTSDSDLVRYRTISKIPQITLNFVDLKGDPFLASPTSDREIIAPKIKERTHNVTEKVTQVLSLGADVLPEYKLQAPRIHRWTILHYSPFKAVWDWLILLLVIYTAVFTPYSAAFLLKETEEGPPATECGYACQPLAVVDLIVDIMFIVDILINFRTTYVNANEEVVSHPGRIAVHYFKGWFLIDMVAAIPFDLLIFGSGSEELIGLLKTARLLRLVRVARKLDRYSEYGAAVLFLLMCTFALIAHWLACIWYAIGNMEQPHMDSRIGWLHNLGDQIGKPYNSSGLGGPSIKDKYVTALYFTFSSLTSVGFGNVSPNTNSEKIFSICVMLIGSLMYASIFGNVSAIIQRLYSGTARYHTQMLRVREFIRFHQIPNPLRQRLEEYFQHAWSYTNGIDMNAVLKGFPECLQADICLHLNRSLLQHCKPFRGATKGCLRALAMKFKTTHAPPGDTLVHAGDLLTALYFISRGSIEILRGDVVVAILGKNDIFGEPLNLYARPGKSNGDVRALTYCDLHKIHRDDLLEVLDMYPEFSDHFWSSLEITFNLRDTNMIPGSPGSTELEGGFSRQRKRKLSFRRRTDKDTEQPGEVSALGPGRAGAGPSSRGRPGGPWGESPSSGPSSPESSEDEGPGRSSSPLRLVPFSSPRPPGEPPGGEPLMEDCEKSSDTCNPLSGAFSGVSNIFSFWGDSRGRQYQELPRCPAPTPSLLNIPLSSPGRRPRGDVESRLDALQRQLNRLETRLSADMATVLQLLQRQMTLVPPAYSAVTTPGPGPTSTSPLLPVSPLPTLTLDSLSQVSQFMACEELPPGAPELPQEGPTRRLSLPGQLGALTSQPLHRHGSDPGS

Row | SMILES | IC50 [1] | AUC(0-inf) [2, 3] | Cmax [2, 3] | MRT inf [2, 3] | Tmax [2, 3] | AUC(0-inf) [2, 4] | AUC(0-t) [2, 4] | Cmax [2, 4] | MRT inf [2, 4] | Tmax [2, 4] | half-life [2, 4] | F ([2]; i.g group, 5 mg/kg) | AUClast ([2]; i.v group, 1 mg/kg) | Cl ([2]; i.v group, 1 mg/kg) | T1/2 ([2]; i.v group, 1 mg/kg) | AUC(0-t) [2, 3] | clearance [2, 3] | half-life [2, 3]
1 | NC(=O)[C@@H]1C[C@H](F)CN1Cc1ccc(OCc2cccc(F)c2)cc1 [Example 1, (2S,4S)-4-fluoro-1-(4-(3-fluorobenzyloxy)benzyl)pyrrolidine-2-formamide] | > 30 µM | 507 ng·h/mL | 690 ng/mL | 41.6 min | 4.98 min | 1400 ng·h/mL | 1400 ng·h/mL | 1000 ng/mL | 64.8 min | 20 min | 33.9 min | 55.2% | 505 ng·h/mL | 32.9 mL/min/kg | 40.2 min | – | – | –
2 | NC(=O)[C@@H]1C[C@H](F)CN1Cc1ccc(OCc2cccc(F)c2)cc1F [Example 3, (2S,4S)-4-fluoro-1-(2-fluoro-4-(3-fluorobenzyloxy)benzyl)pyrrolidine-2-formamide] | – | 582 ng·h/mL | 681 ng/mL | 46.7 min | 4.98 min | 1550 ng·h/mL | 1520 ng·h/mL | 700 ng/mL | 127 min | 37.5 min | 73.8 min | 53.3% | – | – | – | 582 ng·h/mL | 28.7 mL/min/kg | 42.7 min

— patent US11225460B2, “Pyrrolidineamide derivatives and uses thereof” (SUNSHINE LAKE PHARMA CO., LTD., priority 2019, dated 2022)
